Active and inactive are the calls of the source. The calls are words filed in the database; no cut-off is given here.
How the values were obtained:
Mus musculus [1] = test: Cardioprotective activity in ISO-induced heart failure C57BL/6J mouse assessed as ejection fraction in heart at 20 mg/kg/day, po for 14 days by echocardiography (reference value: 49.55 +/- 2.41 %); type: functional; settings: time 14 day
Cardiac muscle cell = test: Cytoprotective activity against OGD-induced myocardial ischemic injury in neonatal rat primary cardiomyocytes assessed as decrease in cellular damage at 1 uM preincubated for 12 hrs followed by exposure to OGD condition for 3 hrs; type: functional, cell-based; settings: time 15.0 hrs
H9c2 [2] = test: Cytoprotective activity against OGD-induced myocardial ischemic injury in rat H9c2 cells assessed as decrease in LDH level at 5 to 50 uM preincubated for 12 hrs followed by exposure to OGD condition for 3 hrs by UV absorption analysis; type: functional, cell-based; settings: dose 5-50 µM, time 15.0 hrs
Mus musculus [3] = test: Improvement in motor ability in ISO-induced heart failure C57BL/6J mouse assessed as increase in grip strength at 5 to 20 mg/kg/day, po for 14 days; type: functional, organism-based; settings: dose 5-20 mg/kg/day, time 14.0 day
Mus musculus [4] = test: Improvement in motor ability in ISO-induced heart failure C57BL/6J mouse assessed as increase in time of remote motion with rotarod at 5 to 20 mg/kg/day, po for 14 days; type: functional, organism-based; settings: dose 5-20 mg/kg/day, time 14.0 day
H9c2 [5] = test: Inhibition of apoptosis in ISO-treated rat H9c2 cells by Annexin V-FITC/PI staining based flow cytometry; type: functional, cell-based; settings: dose 5-50 µM
H9c2 [6] = test: Inhibition of apoptosis in ISO-treated rat H9c2 cells assessed as increase in Bcl-2 level by Western blot analysis; type: functional, cell-based; settings: dose 5-50 µM
Mus musculus [7] = test: Inhibition of cardiomyocyte hypertrophy in ISO-induced heart failure C57BL/6J mouse assessed as decrease in AKT phosphorylation in heart tissue administered orally daily for 14 days by Western blot analysis; type: functional, organism-based; settings: dose 5-20 mg/kg/day, route po, time 14.0 day
Mus musculus [8] = test: Inhibition of cardiomyocyte hypertrophy in ISO-induced heart failure C57BL/6J mouse assessed as decrease in PI3K phosphorylation in heart tissue administered orally daily for 14 days by Western blot analysis; type: functional, organism-based; settings: dose 5-20 mg/kg/day, route po, time 14.0 day
H9c2 [9] = test: Inhibition of apoptosis in ISO-treated rat H9c2 cells assessed as decrease in Bax level by Western blot analysis; type: functional, cell-based; settings: dose 5-50 µM
Mus musculus [10] = test: Inhibition of cardiomyocyte hypertrophy in ISO-induced heart failure C57BL/6J mouse assessed as decrease in ratio of p-PI3K to PI3K levels in heart tissue administered orally daily for 14 days by Western blot analysis; type: functional, organism-based; settings: dose 5-20 mg/kg/day, route po, time 14.0 day
[11] = Metabolic stability in human liver microsomes assessed as half life measured for 5 to 60 mins in presence of NADPH by LC-MS/MS analysis; type: ADME, Microsome; settings: time 5-60 min
[12] = Metabolic stability in human liver microsomes assessed as intrinsic clearance measured for 5 to 60 mins in presence of NADPH by LC-MS/MS analysis; type: ADME, Microsome; settings: time 5-60 min, read-out: CLH
[13] = Metabolic stability in mouse liver microsomes assessed as half life measured for 5 to 60 mins in presence of NADPH by LC-MS/MS analysis; type: ADME, Microsome; settings: time 5-60 min
CYP3A4 = CYP3A4 (Homo sapiens, UniProt P08684); test: Inhibition of CYP3A4 in human liver microsomes preincubated for 10 mins followed by NADPH addition measured after 10 mins by LC/MS/MS analysis relative to control; type: ADME, Microsome; settings: time 20 min
[14] = Cmax in C57/6J mouse at 5 mg/kg, iv measured for 24 hrs; type: ADME, organism-based; settings: in vivo
[15] = Half life in C57/6J mouse at 5 mg/kg, iv measured for 24 hrs; type: ADME, organism-based; settings: in vivo
[16] = AUC (0 to t) in C57/6J mouse at 5 mg/kg, iv measured for 24 hrs; type: ADME, organism-based; settings: in vivo
[17] = Tmax in C57/6J mouse at 20 mg/kg, po measured for 24 hrs; type: ADME, organism-based; settings: in vivo
[18] = Half life in C57/6J mouse at 20 mg/kg, po measured for 24 hrs; type: ADME, organism-based; settings: in vivo
[19] = Oral bioavailability in C57/6J mouse at 20 mg/kg measured for 24 hrs; type: ADME, organism-based; settings: in vivo
[20] = Toxicity in C57BL/6J mouse assessed as animal mortality at 400 mg/kg, po administered as single dose measured for 7 days; type: organism-based; settings: in vivo, 168 h, time 7 day
[21] = Toxicity in C57BL/6J mouse assessed as change in relative organ weights at 400 mg/kg, po administered as single dose measured for 7 days; type: organism-based; settings: in vivo, 168 h, time 7 day

Sequence of CYP3A4 (P08684 whole entry): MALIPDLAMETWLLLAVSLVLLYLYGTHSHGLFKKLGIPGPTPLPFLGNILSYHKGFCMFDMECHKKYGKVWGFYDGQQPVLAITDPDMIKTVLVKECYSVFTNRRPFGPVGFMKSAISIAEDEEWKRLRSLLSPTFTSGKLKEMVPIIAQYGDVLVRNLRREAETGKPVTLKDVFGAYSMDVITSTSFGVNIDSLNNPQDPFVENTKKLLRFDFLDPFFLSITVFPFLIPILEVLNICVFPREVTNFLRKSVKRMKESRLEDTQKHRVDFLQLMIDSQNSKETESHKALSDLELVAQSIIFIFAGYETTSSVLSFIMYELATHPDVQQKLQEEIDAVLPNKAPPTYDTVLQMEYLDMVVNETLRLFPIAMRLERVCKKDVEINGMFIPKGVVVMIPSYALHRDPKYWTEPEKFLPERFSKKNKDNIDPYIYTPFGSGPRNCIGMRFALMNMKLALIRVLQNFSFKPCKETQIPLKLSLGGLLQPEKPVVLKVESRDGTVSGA

With `OC[C@H]1O[C@@H](O[C@@H]2OC=C[C@H]3[C@H](O)[C@@H]4O[C@]4(COc4ccc(C(F)(F)F)cc4)[C@@H]23)[C@H](O)[C@@H](O)[C@@H]1O` the Activity (Mus musculus [1]) was 58.46%, the Activity (Cardiac muscle cell) was “Active; Exhibited Moderate Effect” and the Activity (H9c2 [2]) was “Active”. The Activity (Mus musculus [3]) was “Active”, the Activity (Mus musculus [4]) was “Active” and the inhibition (H9c2 [5]) was “Active; Exhibited Significantly Greater Decrease In Apoptotic Rate”. For the same molecule, the inhibition (H9c2 [6]) was “Dose-dependent-effect”, the inhibition (Mus musculus [7]) was “Dose-dependent-effect” and the inhibition (Mus musculus [8]) was “Dose-dependent-effect”. For the same molecule, the inhibition (H9c2 [9]) was “Dose-dependent-effect”, the inhibition (Mus musculus [10]) was “Dose-dependent-effect” and the half-life [11] was over 2.42 h. For the same molecule, the CLint scaled [12] was under 8.6 mL/min/kg, the half-life [13] was over 2.42 h and the inhibition at 10 min (CYP3A4) was 0.4%. The Cmax [14] was 2710 ng/mL, the half-life [15] was 0.95 h and the AUC(0-t) at 24 h [16] was 1090 ng·h/mL. It also gave a Tmax [17] of 1.42 h, a half-life [18] of 1.01 h and a bioavailability [19] of 41.8%. The Activity [20] was “Non-toxic” and the Activity [21] was “Non-toxic”.

From ChEMBL document CHEMBL6153118, “Structure Optimization of Natural Product Catalpol to Obtain Novel and Potent Analogs against Heart Failure” (J Med Chem, 2025)
